Like-named read-outs stand apart in the source and are kept apart here.
How the values were obtained:
hT2R64 = hT2R64 (Homo sapiens (Human), UniProt P59538); assay: hT2R panel inhibition, transient HEK293 G16g44, agonist Aristolochic Acid 1 μM; assay type: cell-based; conditions: HEK293, compound at 25 μM
In short: (§1)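 Cells stably bearing the promiscuous G protein received one human T2R each by transient transfection and were assayed functionally. Ligands used at EC80; the test compound's inhibition equals the lowered activity.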

hT2R51 = hT2R51 (Homo sapiens (Human), UniProt P59533); assay: hT2R panel inhibition, transient HEK293 G16g44, agonist Prop 2.5 μM; assay type: cell-based; conditions: HEK293, compound at 25 μM; receptor activated to EC80 with the corresponding agonist; read-out: screening result against bitter receptor 51
hT2R51, sequence (P59533 whole entry): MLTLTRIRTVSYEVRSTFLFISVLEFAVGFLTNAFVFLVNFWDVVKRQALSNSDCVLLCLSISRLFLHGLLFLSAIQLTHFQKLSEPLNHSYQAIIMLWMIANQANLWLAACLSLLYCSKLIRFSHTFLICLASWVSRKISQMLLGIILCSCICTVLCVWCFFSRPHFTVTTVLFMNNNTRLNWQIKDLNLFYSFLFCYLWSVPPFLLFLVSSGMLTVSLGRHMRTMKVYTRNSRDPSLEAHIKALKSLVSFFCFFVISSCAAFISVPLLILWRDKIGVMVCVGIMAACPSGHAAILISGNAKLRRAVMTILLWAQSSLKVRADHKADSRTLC
Procedure: (§2) Specifically, in order to evaluate the inhibitory selectivity of the Compound C compound, this compound was tested against 22 human T2Rs which were deorphaned by Senomyx. These receptors and the bitter ligands that activate these human T2Rs are reported in earlier patent applications which are incorporated by reference herein. These 22 human T2Rs are hT2R1, 3, 4, 5, 7, 8, 9, 10, 13, 14, 16, 44, 51, 54, 55, 61, 63, 64, 65, 67, 71 and 75. The amino acid and nucleic acid sequences of all of these T2Rs may be found in these earlier patent applications. These human T2Rs were each individually transiently transfected into HEK293 cells that stably express the promiscuous G protein G16g44 and functional assays were effected using these receptors as disclosed in these same patent applications. […] The ligands were used at EC80 concentration levels. The list of bitter ligands utilized and the tested ligand concentrations are contained in Table 5 of this example.
(§3) Relating to the foregoing, FIG. 5 contains experimental results wherein Compound C was tested with different agonist compounds. The inhibition activity is represented by the reduction of receptor activity in the presence of Compound C. […] These 13 hT2Rs are hT2R3, 7, 10, 14, 16, 44, 51, 55, 61, 63, 64, 65, and 71.

hT2R67 = assay: hT2R panel inhibition, transient HEK293 G16g44, agonist Andrographolide 5 μM; assay type: cell-based, human; conditions: compound at 25 μM; receptor activated to EC80 with the corresponding agonist
Procedure: as §2, §3

hT2R71 = hT2R71 (Homo sapiens (Human), UniProt P59536); assay: hT2R panel inhibition, transient HEK293 G16g44, agonist Picric Acid 10 μM; assay type: cell-based; conditions: HEK293, compound at 25 μM
hT2R71, sequence (P59536 whole entry): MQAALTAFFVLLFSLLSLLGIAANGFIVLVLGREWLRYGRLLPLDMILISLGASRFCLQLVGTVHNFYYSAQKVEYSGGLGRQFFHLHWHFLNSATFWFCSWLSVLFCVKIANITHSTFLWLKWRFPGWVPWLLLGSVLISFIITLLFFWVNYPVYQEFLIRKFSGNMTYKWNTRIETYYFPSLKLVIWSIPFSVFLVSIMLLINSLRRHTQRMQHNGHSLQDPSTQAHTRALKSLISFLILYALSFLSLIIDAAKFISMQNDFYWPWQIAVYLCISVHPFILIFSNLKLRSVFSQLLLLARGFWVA
In short: as §1

hT2R63 = assay: hT2R panel inhibition, transient HEK293 G16g44, agonist Caffeine 1 mM or Andrographolide 100 μM; assay type: cell-based, human; conditions: compound at 25 μM; for screening result against bitter receptor 63: receptor activated to EC80 with the corresponding agonist
In short: as §1

hT2R14 [1] = target: T1, hT2R14 (Homo sapiens (Human), UniProt Q9NYV8); assay: hT2R panel inhibition, transient HEK293 G16g44, agonist Aristolochic Acid 2 μM; assay type: cell-based; conditions: HEK293, compound at 25 μM
T1 sequence (Q9NYV8 whole entry): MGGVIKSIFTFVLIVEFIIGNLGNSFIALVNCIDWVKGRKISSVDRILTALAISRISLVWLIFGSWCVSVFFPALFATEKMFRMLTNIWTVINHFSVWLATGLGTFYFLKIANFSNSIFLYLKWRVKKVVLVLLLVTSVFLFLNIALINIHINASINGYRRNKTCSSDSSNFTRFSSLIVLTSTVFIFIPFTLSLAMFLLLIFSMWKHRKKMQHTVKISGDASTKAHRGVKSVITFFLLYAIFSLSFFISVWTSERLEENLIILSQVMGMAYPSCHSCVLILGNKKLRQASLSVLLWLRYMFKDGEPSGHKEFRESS
In short: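 Agonist challenge was at EC80, with 0.5 mM andrographolide on hT2R8 and 2 μM aristolochic acid on hT2R14. Inhibition was measured in functional assays in HEK293 cells that stably carry the promiscuous G protein G16g44 and were transiently transfected with the individual receptor.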

hT2R3 = hT2R3 (Homo sapiens (Human), UniProt Q9NYW6); assay: hT2R panel inhibition, transient HEK293 G16g44, agonist Chloroquine pH6.5 50 μM; assay type: cell-based; conditions: HEK293, compound at 25 μM
hT2R3, sequence (Q9NYW6 whole entry): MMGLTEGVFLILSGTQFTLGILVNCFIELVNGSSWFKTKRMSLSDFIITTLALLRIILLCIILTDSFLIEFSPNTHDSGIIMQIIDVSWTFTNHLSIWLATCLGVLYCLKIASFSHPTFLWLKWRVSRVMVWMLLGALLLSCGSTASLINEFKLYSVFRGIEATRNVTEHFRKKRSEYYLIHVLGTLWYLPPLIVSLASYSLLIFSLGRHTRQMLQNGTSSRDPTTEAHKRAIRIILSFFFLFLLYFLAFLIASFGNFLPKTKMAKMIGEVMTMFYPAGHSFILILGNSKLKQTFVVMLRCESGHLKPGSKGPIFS
In short: as §1

hT2R44 = assay: hT2R panel inhibition, transient HEK293 G16g44, agonist Denatonium 0.5 μM; assay type: cell-based, human; conditions: compound at 25 μM; for screening result against bitter receptor 44: receptor activated to EC80 with the corresponding agonist
In short: as §1

hT2R10 = hT2R10 (Homo sapiens (Human), UniProt Q9NYW0); assay: hT2R panel inhibition, transient HEK293 G16g44, agonist Strychnine 50 μM; assay type: cell-based
hT2R10, sequence (Q9NYW0 whole entry): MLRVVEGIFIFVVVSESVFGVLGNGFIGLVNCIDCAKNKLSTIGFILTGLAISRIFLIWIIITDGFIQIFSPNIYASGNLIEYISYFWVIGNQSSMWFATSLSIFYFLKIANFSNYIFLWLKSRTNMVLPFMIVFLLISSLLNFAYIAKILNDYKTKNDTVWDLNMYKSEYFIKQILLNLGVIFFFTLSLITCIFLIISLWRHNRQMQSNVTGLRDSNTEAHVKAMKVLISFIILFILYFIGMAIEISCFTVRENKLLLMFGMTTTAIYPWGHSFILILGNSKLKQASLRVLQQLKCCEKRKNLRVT

hT2R61 = hT2R61 (Homo sapiens (Human), UniProt P59537); assay: hT2R panel inhibition, transient HEK293 G16g44, agonist Aristolochic Acid 25 nM; assay type: cell-based; conditions: HEK293, compound at 25 μM
hT2R61, sequence (P59537 whole entry): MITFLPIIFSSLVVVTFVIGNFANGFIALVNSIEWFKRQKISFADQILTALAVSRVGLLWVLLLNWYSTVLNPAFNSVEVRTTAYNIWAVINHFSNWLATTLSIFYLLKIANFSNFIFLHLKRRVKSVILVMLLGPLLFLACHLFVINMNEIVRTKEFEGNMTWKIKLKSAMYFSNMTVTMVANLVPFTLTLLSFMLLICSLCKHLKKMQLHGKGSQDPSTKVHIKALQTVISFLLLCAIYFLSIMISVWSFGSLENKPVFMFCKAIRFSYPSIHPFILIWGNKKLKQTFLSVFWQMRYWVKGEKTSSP
In short: as §1

hT2R7 = hT2R7 (Homo sapiens (Human), UniProt Q9NYW3); assay: hT2R panel inhibition, transient HEK293 G16g44, agonist Chloroquine pH6.5 10 mM; assay type: cell-based; conditions: HEK293, compound at 25 μM; receptor activated to EC80 with the corresponding agonist; read-out: screening result against bitter receptor 7
hT2R7, sequence (Q9NYW3 whole entry): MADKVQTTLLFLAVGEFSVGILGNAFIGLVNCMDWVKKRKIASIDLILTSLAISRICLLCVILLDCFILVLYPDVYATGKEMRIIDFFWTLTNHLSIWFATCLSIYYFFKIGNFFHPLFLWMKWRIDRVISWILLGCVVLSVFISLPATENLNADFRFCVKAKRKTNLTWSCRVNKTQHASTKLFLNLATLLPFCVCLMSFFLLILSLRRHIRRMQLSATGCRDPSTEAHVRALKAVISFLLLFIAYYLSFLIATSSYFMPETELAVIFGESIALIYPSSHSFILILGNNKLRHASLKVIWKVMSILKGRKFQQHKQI
In short: as §1

hT2R5 = hT2R5 (Homo sapiens (Human), UniProt Q9NYW4); assay: hT2R panel inhibition, transient HEK293 G16g44, agonist Picoline 10 mM; assay type: cell-based; conditions: HEK293, compound at 25 μM; receptor activated to EC80 with the corresponding agonist; read-out: screening result against bitter receptor 5
hT2R5, sequence (Q9NYW4 whole entry): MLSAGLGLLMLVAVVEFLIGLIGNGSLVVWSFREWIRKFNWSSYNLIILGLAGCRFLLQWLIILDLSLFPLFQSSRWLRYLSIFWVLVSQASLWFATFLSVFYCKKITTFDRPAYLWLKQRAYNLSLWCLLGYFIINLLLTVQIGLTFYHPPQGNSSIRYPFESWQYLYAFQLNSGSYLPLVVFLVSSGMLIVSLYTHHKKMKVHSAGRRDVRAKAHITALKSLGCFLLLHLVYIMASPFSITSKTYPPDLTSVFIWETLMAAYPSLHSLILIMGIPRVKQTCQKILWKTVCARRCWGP
In short: as §1

hT2R75 = hT2R75 (Homo sapiens (Human), UniProt P59540); assay: hT2R panel inhibition, transient HEK293 G16g44, agonist Strychnine 1 μM; assay type: cell-based
hT2R75, sequence (P59540 whole entry): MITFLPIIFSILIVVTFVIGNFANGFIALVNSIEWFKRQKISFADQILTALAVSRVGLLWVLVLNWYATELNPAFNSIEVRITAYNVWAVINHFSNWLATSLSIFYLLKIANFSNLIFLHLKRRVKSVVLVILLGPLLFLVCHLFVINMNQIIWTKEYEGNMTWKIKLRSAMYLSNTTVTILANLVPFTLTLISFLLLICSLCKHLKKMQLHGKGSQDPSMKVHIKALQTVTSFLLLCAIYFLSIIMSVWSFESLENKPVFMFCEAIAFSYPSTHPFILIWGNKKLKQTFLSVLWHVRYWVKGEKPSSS
Procedure: as §2, §3

hT2R16 = hT2R16 (Homo sapiens (Human), UniProt Q9NYV7); assay: hT2R panel inhibition, transient HEK293 G16g44, agonist Salicin 1 mM; assay type: cell-based; conditions: HEK293, compound at 25 μM
hT2R16, sequence (Q9NYV7 whole entry): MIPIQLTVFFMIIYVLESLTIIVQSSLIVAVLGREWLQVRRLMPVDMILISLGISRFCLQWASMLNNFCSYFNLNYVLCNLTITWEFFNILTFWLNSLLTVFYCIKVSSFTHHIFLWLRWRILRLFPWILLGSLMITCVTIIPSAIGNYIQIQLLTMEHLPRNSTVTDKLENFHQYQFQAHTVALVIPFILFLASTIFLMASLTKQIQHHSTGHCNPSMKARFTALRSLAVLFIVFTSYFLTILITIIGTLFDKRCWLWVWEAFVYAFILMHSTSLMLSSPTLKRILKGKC
In short: as §1

hT2R55 = assay: hT2R panel inhibition, transient HEK293 G16g44, agonist Cinchonine 150 μM; assay type: cell-based, human; conditions: compound at 25 μM; for screening result against bitter receptor 55: receptor activated to EC80 with the corresponding agonist
In short: as §1

hT2R65 = assay: hT2R panel inhibition, transient HEK293 G16g44, agonist Oleuropein 1 mM; assay type: cell-based, human; conditions: compound at 25 μM; for screening result against bitter receptor 65: receptor activated to EC80 with the corresponding agonist
In short: as §1

hT2R14 [2] = target: T1, hT2R14; assay: hT2R14 antagonist high-throughput FLIPR assay, stable cell line with G16g44, agonist aristolochic acid; assay type: cell-based; conditions: read-out: IC50 on hT2R14 bitter receptor
In short: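 Compounds were co-applied with 3 μM aristolochic acid, a dose set to reach 70-80% of maximal hT2R14 activation. Read-out was FLIPR fluorescence in a stable HEK293 line co-expressing hT2R14 and G16g44.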

hT2R54 = assay: hT2R panel inhibition, transient HEK293 G16g44, agonist Ranitidine 5 mM; assay type: cell-based, human; conditions: compound at 25 μM; receptor activated to EC80 with the corresponding agonist
Procedure: as §2, §3

[3] = receptor activated to EC80 with the corresponding agonist, read-out: screening result against bitter receptor 64
[4] = receptor activated to EC80 with the corresponding agonist, read-out: screening result against bitter receptor 71
[5] = receptor activated to EC80 with the corresponding agonist, read-out: screening result against bitter receptor 14
[6] = receptor activated to EC80 with the corresponding agonist, read-out: screening result against bitter receptor 3
[7] = HEK293, read-out: screening result against bitter receptor 10, compound at 25 μM, receptor activated to EC80 with the corresponding agonist
[8] = receptor activated to EC80 with the corresponding agonist, read-out: screening result against bitter receptor 61
[9] = HEK293, read-out: screening result against bitter receptor 75, compound at 25 μM, receptor activated to EC80 with the corresponding agonist
[10] = receptor activated to EC80 with the corresponding agonist, read-out: screening result against bitter receptor 16
[11] = receptor activated to EC80 with agonist

hT2R64, sequence (P59538 whole entry): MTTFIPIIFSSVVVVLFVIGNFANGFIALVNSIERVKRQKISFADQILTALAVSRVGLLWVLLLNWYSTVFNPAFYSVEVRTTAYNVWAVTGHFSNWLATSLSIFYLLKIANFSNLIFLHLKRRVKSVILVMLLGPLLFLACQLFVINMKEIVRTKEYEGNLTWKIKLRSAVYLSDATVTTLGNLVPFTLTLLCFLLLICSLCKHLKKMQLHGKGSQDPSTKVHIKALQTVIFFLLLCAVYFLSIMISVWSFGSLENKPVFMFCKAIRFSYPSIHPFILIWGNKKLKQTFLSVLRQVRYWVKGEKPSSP

Structure (SMILES) | inhibition at 25 µM (hT2R64; [3]) | inhibition at 25 µM (hT2R51) | screening result against bitter receptor 67 (hT2R67) | inhibition at 25 µM (hT2R71; [4]) | screening result against bitter receptor 63 (hT2R63) | inhibition at 25 µM (hT2R14 [1]; [5]) | inhibition at 25 µM (hT2R3; [6]) | screening result against bitter receptor 44 (hT2R44) | inhibition at 25 µM (hT2R10; [7]) | inhibition at 25 µM (hT2R61; [8]) | inhibition at 25 µM (hT2R5) | inhibition at 25 µM (hT2R75; [9]) | inhibition at 25 µM (hT2R16; [10]) | screening result against bitter receptor 55 (hT2R55) | screening result against bitter receptor 65 (hT2R65) | screening result against bitter receptor 54 (hT2R54) | further results
COc1ccc(CN(C(C)c2ccccc2)S(=O)(=O)c2ccc(C(=O)O)cc2)cc1 (centres unmarked) [Example 5-95, 4-(N-(4-methoxybenzyl)-N-(1-phenylethyl)sulfamoyl)benzoic acid] | 60 to 80% | 20 to 40% | + (20% to 40% inhibition = +) | 40 to 60% | ++++ (80% or greater inhibition = ++++) | > 80% | 40 to 60% | +++ (60% to 80% inhibition = +++) | 20 to 40% | > 80% | 20 to 40% | 20 to 40% | 40 to 60% | ++++ (80% or greater inhibition = ++++) | +++ (60% to 80% inhibition = +++) |  | inhibition at 25 µM (hT2R7): 20 to 40%
COc1ccccc1CN(Cc1ccc(C(=O)O)cc1)S(=O)(=O)c1ccc(O)cc1 [Example 5-42, 4-((4-hydroxy-N-(2-methoxybenzyl)phenylsulfonamido)methyl)-benzoic acid] | 40 to 60% |  |  | 40 to 60% | ++ (40% to 60% inhibition = ++) | > 80% | 20 to 40% | ++ (40% to 60% inhibition = ++) |  | > 80% |  | 20 to 40% | 20 to 40% |  |  |  | IC50 (hT2R14 [2]): 2.56 µM
CSc1ccc(CN(Cc2ccccc2)S(=O)(=O)c2ccc(C(=O)O)cc2)cc1 [Example 5-78, 4-(N-benzyl-N-(4-(methylthio)benzyl)sulfamoyl)benzoic acid] | 40 to 60% | 20 to 40% | + (20% to 40% inhibition = +) | 40 to 60% | +++ (60% to 80% inhibition = +++) | > 80% | 20 to 40% | + (20% to 40% inhibition = +) | 20 to 40% | > 80% | 20 to 40% | 20 to 40% | 20 to 40% | +++ (60% to 80% inhibition = +++) | +++ (60% to 80% inhibition = +++) | + (20% to 40% inhibition = +) | 
COc1ccc(OC)c(/C=C2\SC(=S)N(CCC(=O)O)C2=O)c1 [Example 6-1, (Z)-3-(5-(2,5-dimethoxybenzylidene)-4-oxo-2-thioxothiazolidin-3-yl)propanoic acid] |  |  |  |  |  |  |  |  |  |  |  |  |  |  |  |  | inhibition at 25 µM (hT2R64; receptor activated to EC80 with agonist, read-out: inhibition of bitter receptor 64): 60 to 80%; inhibition at 25 µM (hT2R71; receptor activated to EC80 with agonist, read-out: inhibition of bitter receptor 71): 20 to 40%; IC50 (hT2R14 [2]): 2.75 µM; inhibition of bitter receptor 63 (hT2R63; [11]): + (20% to 40% inhibition = +); inhibition at 25 µM (hT2R14 [1]; receptor activated to EC80 with agonist, read-out: inhibition of bitter receptor 14): > 80%; inhibition at 25 µM (hT2R3; receptor activated to EC80 with agonist, read-out: inhibition of bitter receptor 3): 20 to 40%; inhibition of bitter receptor 44 (hT2R44; [11]): ++ (40% to 60% inhibition = ++); inhibition at 25 µM (hT2R10; HEK293, read-out: inhibition of bitter receptor 10, compound at 25 μM, receptor activated to EC80 with agonist): > 80%; inhibition at 25 µM (hT2R61; receptor activated to EC80 with agonist, read-out: inhibition of bitter receptor 61): 40 to 60%; inhibition at 25 µM (hT2R75; HEK293, read-out: inhibition of bitter receptor 75, compound at 25 μM, receptor activated to EC80 with agonist): 20 to 40%; inhibition at 25 µM (hT2R16; receptor activated to EC80 with agonist, read-out: inhibition of bitter receptor 16): 20 to 40%; inhibition of bitter receptor 55 (hT2R55; [11]): + (20% to 40% inhibition = +); inhibition of bitter receptor 65 (hT2R65; [11]): + (20% to 40% inhibition = +)
N#Cc1cccc(CN(Cc2ccccc2)S(=O)(=O)c2ccc(C(=O)O)cc2)c1 [Example 5-75, 4-(N-benzyl-N-(3-cyanobenzyl)sulfamoyl)benzoic acid] |  | 20 to 40% |  |  | + (20% to 40% inhibition = +) |  |  |  |  | 20 to 40% | 20 to 40% | 20 to 40% |  |  |  |  | 
Cc1cccc(CN(Cc2ccccc2)S(=O)(=O)c2ccc(C(=O)O)cc2)c1 [Example 5-73, 4-(N-benzyl-N-(3-methylbenzyl)sulfamoyl)benzoic acid] | 20 to 40% | > 80% | + (20% to 40% inhibition = +) | 40 to 60% | ++++ (80% or greater inhibition = ++++) | > 80% | 40 to 60% |  | 40 to 60% | 60 to 80% | 20 to 40% | 20 to 40% | 20 to 40% | ++ (40% to 60% inhibition = ++) | ++ (40% to 60% inhibition = ++) | +++ (60% to 80% inhibition = +++) | inhibition at 25 µM (hT2R7): 20 to 40%
O=C(O)c1ccc(S(=O)(=O)N(Cc2ccccc2)Cc2cccc(Cl)c2)cc1 [Example 5-84, 4-(N-benzyl-N-(3-chlorobenzyl)sulfamoyl)benzoic acid] | 20 to 40% | 60 to 80% | + (20% to 40% inhibition = +) | 20 to 40% | +++ (60% to 80% inhibition = +++) | > 80% | 40 to 60% | + (20% to 40% inhibition = +) | 20 to 40% | > 80% | 20 to 40% | 20 to 40% | 20 to 40% | +++ (60% to 80% inhibition = +++) | +++ (60% to 80% inhibition = +++) | ++ (40% to 60% inhibition = ++) | 
